Measurements from patent US8455658B2, “Thiazole and thiadiazole compounds for inflammation and immune-related uses” (Synta Pharmaceuticals Corp., priority 2006, dated 2013).
Counter-ions that a name gives are not always drawn.

Tested on: IL-2 production
Assay: Inhibition of IL-2 production in PHA-activated Jurkat cells (ELISA)
Format: cell-based
Settings: Homo sapiens, PHA 2.5 μg/mL, IL-2 ELISA
Method: Jurkat cells were placed in a 96 well plate (0.5 million cells per well in 1% FBS medium) then a test compound of this invention was added at different concentrations. After 10 minutes, the cells were activated with PHA (final concentration 2.5 μg/mL) and incubated for 20 hours at 37° C. under CO2. The final volume was 200 μL. Following incubation, the cells were centrifuged and the supernatants collected and stored at −70° C. prior to assaying for IL-2 production. A commercial ELISA kit (IL-2 Eli-pair, Diaclone Research, Besancon, France) was used to detect production of IL-2, from which dose response curves were obtained.

Row | Structure (SMILES) | IC50 (Jurkat, 20 h) [nM] | IC50 (20 hours) [nM]
1 | COc1ccc(OC)c(-c2csc(NC(=O)c3c(F)cccc3F)n2)c1 [Compound 2, N-[4-(2,5-Dimethoxy-phenyl)-thiazol-2-yl]-2,6-difluoro-benzamide] | > 1000 | –
2 | COc1ccc(OC)c(-c2cnc(NC(=O)c3c(F)cccc3F)s2)c1 [Compound 3, N-[5-(2,5-Dimethoxy-phenyl)-thiazol-2-yl]-2,6-difluoro-benzamide] | 100 to 200 | –
3 | O=C(Nc1ncc(-c2cc(C(F)(F)F)ccc2Cl)s1)c1c(F)cccc1F [Compound 4, N-[5-(2-Chloro-5-trifluoromethyl-phenyl)-thiazol-2-yl]-2,6-difluoro-benzamide] | 50 to 100 | –
4 | N#Cc1cccc(-c2cnc(NC(=O)c3c(F)cccc3F)s2)c1 [Compound 6, N-[5-(3-Cyano-phenyl)-thiazol-2-yl]-2,6-difluoro-benzamide] | > 1000 | –
5 | Cn1nnc(-c2cccc(-c3cnc(NC(=O)c4c(F)cccc4F)s3)c2)n1 [Compound 7, 2,6-Difluoro-N-{5-[3-(2-methyl-2H-tetrazol-5-yl)-phenyl]-thiazol-2-yl}-benzamide] | > 1000 | –
6 | COC(=O)c1cccc(-c2sc(NC(=O)c3c(F)cccc3F)nc2C)c1 [Compound 8, 3-[2-(2,6-Difluoro-benzoylamino)-4-methyl-thiazol-5-yl]-benzoic acid methyl ester] | 200 to 500 | –
7 | Cc1nc(NC(=O)c2c(F)cccc2F)sc1-c1cccc(C(F)(F)F)c1 [Compound 9, 2,6-Difluoro-N-[4-methyl-5-(3-trifluoromethyl-phenyl)-thiazol-2-yl]-benzamide] | 30 to 50 | –
8 | Cc1nc(NC(=O)c2ccncc2F)sc1-c1cccc(C(F)(F)F)c1 [Compound 10, 3-Fluoro-N-[4-methyl-5-(3-trifluoromethyl-phenyl)-thiazol-2-yl]-isonicotinamide] | > 1000 | –
9 | Cc1nnsc1C(=O)Nc1nc(C)c(-c2cccc(C(F)(F)F)c2)s1 [Compound 12, 4-Methyl-[1,2,3]thiadiazole-5-carboxylic acid [4-methyl-5-(3-trifluoromethyl-phenyl)-thiazol-2-yl]-amide] | > 1000 | –
10 | Cc1nc(NC(=O)c2c(F)cccc2F)sc1-c1cccc(C#N)c1 [Compound 13, N-[5-(3-Cyano-phenyl)-4-methyl-thiazol-2-yl]-2,6-difluoro-benzamide] | 100 to 200 | –
11 | O=C(Nc1nnc(-c2cc(C(F)(F)F)ccc2Cl)s1)c1c(F)cccc1F [Compound 44, N-[5-(2-Chloro-5-trifluoromethyl-phenyl)-[1,3,4]thiadiazol-2-yl]-2,6-difluoro-benzamide] | > 1000 | –
12 | Cc1nc(NC(=O)c2c(F)cccc2F)sc1-c1cccc(C(F)(F)F)c1 [Compound 48, Sodium (2,6-difluorobenzoyl)(4-methyl-5-(3-(trifluoromethyl)phenyl)thiazol-2-yl)amide] | – | 50 to 100
13 | Cc1nc(NC(=O)c2cccnc2F)sc1-c1cccc(C(F)(F)F)c1 [Compound 50, 2-Fluoro-N-(4-methyl-5-(3-(trifluoromethyl)phenyl)thiazol-2-yl)nicotinamide] | 200 to 500 | –
14 | Cc1ncccc1C(=O)Nc1nc(C)c(-c2cccc(C(F)(F)F)c2)s1 [Compound 51, 2-Methyl-N-(4-methyl-5-(3-(trifluoromethyl)phenyl)thiazol-2-yl)nicotinamide] | > 1000 | –
15 | O=C(Nc1nc(C2CC2)c(-c2cccc(C(F)(F)F)c2)s1)c1c(F)cccc1F [Compound 52, N-(4-Cyclopropyl-5-(3-(trifluoromethyl)phenyl)thiazol-2-yl)-2,6-difluorobenzamide] | 50 to 100 | –
16 | Cc1cnccc1C(=O)Nc1nc(C2CC2)c(-c2cccc(C(F)(F)F)c2)s1 [Compound 53, N-(4-cyclopropyl-5-(3-(trifluoromethyl)phenyl)thiazol-2-yl)-3-methylisonicotinamide] | 50 to 100 | –
17 | Cc1nc(NC(=O)c2c(F)cccc2F)sc1-c1ccncc1 [Compound 54, 2,6-Difluoro-N-(4-methyl-5-(pyridin-4-yl)thiazol-2-yl)benzamide hydrobromide] | > 1000 | –
18 | COc1ccc(OC)c(-c2sc(NC(=O)c3c(F)cccc3F)nc2C)c1 [Compound 55, N-(5-(2,5-Dimethoxyphenyl)-4-methylthiazol-2-yl)-2,6-difluorobenzamide] | 200 to 500 | –
19 | Cc1nc(NC(=O)c2c(F)cccc2F)sc1-c1cc(Br)c2c(c1)OCO2 [Compound 56, N-(5-(7-Bromobenzo[d][1,3]dioxol-5-yl)-4-methylthiazol-2-yl)-2,6-difluorobenzamide] | 200 to 500 | –
20 | Cc1nc(NC(=O)c2c(F)cccc2F)sc1-c1ccc2c(c1)OCO2 [Compound 57, N-(5-(Benzo[d][1,3]dioxol-5-yl)-4-methylthiazol-2-yl)-2,6-difluorobenzamide] | 200 to 500 | –

Row | Structure (SMILES) | IC50 (Jurkat, 20 h) [nM] | IC50 (20 hours) [nM]
21 | Cc1nc(NC(=O)c2c(F)cccc2F)sc1-c1cc(C#N)c2c(c1)OCO2 [Compound 58, N-(5-(7-Cyanobenzo[d][1,3]dioxol-5-yl)-4-methylthiazol-2-yl)-2,6-difluorobenzamide] | 200 to 500 | –
22 | Cc1nc(NC(=O)c2c(F)cccc2F)sc1-c1ccc(Br)s1 [Compound 59, N-(5-(5-Bromothiophen-2-yl)-4-methylthiazol-2-yl)-2,6-difluorobenzamide] | 100 to 200 | –
23 | Cc1nc(NC(=O)c2c(F)cccc2F)sc1-c1cc(Br)sc1Br [Compound 61, N-(5-(2,5-Dibromothiophen-3-yl)-4-methylthiazol-2-yl)-2,6-difluorobenzamide] | 200 to 500 | –
24 | Cc1nc(NC(=O)c2c(F)cccc2F)sc1-c1ccsc1 [Compound 62, 2,6-Difluoro-N-(4-methyl-5-(thiophen-3-yl)thiazol-2-yl)benzamide] | > 1000 | –
25 | C=CCOc1ccc(C(F)(F)F)cc1-c1sc(NC(=O)c2c(F)cccc2F)nc1C(=O)OC [Compound 63, Methyl 5-(2-(allyloxy)-5-(trifluoromethyl)phenyl)-2-(2,6-difluorobenzamido)thiazole-4-carboxylate] | > 1000 | –
26 | C=CCOc1ccc(C(F)(F)F)cc1-c1sc(NC(=O)c2c(F)cccc2F)nc1C(=C)C [Compound 64, N-(5-(2-(Allyloxy)-5-(trifluoromethyl)phenyl)-4-(prop-1-en-2-yl)thiazol-2-yl)-2,6-difluorobenzamide] | > 1000 | –
27 | C=CCOc1ccc(C(F)(F)F)cc1-c1cnc(NC(=O)c2c(F)cccc2F)s1 [Compound 65, N-(5-(2-(Allyloxy)-5-(trifluoromethyl)phenyl)thiazol-2-yl)-2,6-difluorobenzamide] | > 1000 | –
28 | O=C(O)c1nc(NC(=O)c2c(F)cccc2F)sc1-c1cccc(C(F)(F)F)c1 [Compound 66, 2-(2,6-difluorobenzamido)-5-(3-(trifluoromethyl)phenyl)thiazole-4-carboxylic acid] | > 1000 | –
29 | O=Cc1nc(NC(=O)c2c(F)cccc2F)sc1-c1cccc(C(F)(F)F)c1 [Compound 67, 2,6-Difluoro-N-(4-formyl-5-(3-(trifluoromethyl)phenyl)thiazol-2-yl)benzamide] | > 1000 | –
30 | CC(C)(O)c1nc(NC(=O)c2c(F)cccc2F)sc1-c1cccc(C(F)(F)F)c1 [Compound 68, 2,6-Difluoro-N-(4-(2-hydroxypropan-2-yl)-5-(3-(trifluoromethyl)phenyl)thiazol-2-yl)benzamide] | > 1000 | –
31 | C=C(C)c1nc(NC(=O)c2c(F)cccc2F)sc1-c1cccc(C(F)(F)F)c1 [Compound 68a, 2,6-difluoro-N-(4-(prop-1-en-2-yl)-5-(3-(trifluoromethyl)phenyl)thiazol-2-yl)benzamide] | 50 to 100 | –
32 | CC(C)c1nc(NC(=O)c2c(F)cccc2F)sc1-c1cccc(C(F)(F)F)c1 [Compound 69, 2,6-Difluoro-N-(4-isopropyl-5-(3-(trifluoromethyl)phenyl)thiazol-2-yl)benzamide] | 200 to 500 | –
33 | O=C(Nc1nc(CCl)c(-c2cccc(C(F)(F)F)c2)s1)c1c(F)cccc1F [Compound 70, N-(4-(Chloromethyl)-5-(3-(trifluoromethyl)phenyl)thiazol-2-yl)-2,6-difluorobenzamide] | > 1000 | –
34 | O=C(Nc1nc(/C=N\O)c(-c2cccc(C(F)(F)F)c2)s1)c1c(F)cccc1F [Compound 72, (Z)-2,6-difluoro-N-(4-((hydroxyimino)methyl)-5-(3-(trifluoromethyl)phenyl)thiazol-2-yl)benzamide] | > 1000 | –
35 | N#Cc1nc(NC(=O)c2c(F)cccc2F)sc1-c1cccc(C(F)(F)F)c1 [Compound 73, N-(4-Cyano-5-(3-(trifluoromethyl)phenyl)thiazol-2-yl)-2,6-difluorobenzamide] | 200 to 500 | –
36 | CC(O)c1nc(NC(=O)c2c(F)cccc2F)sc1-c1cccc(C(F)(F)F)c1 (stereo not shown) [Compound 74, 2,6-Difluoro-N-(4-(1-hydroxyethyl)-5-(3-(trifluoromethyl)phenyl)thiazol-2-yl)benzamide] | > 1000 | –
37 | C=Cc1nc(NC(=O)c2c(F)cccc2F)sc1-c1cccc(C(F)(F)F)c1 [Compound 75, 2,6-Difluoro-N-(5-(3-(trifluoromethyl)phenyl)-4-vinylthiazol-2-yl)benzamide] | 200 to 500 | –
38 | O=C(Nc1nc(-c2cnco2)c(-c2cccc(C(F)(F)F)c2)s1)c1c(F)cccc1F [Compound 76, 2,6-Difluoro-N-(4-(oxazol-5-yl)-5-(3-(trifluoromethyl)phenyl)thiazol-2-yl)benzamide] | 50 to 100 | –
39 | O=C(Nc1nc(C2=NCCN2)c(-c2cccc(C(F)(F)F)c2)s1)c1c(F)cccc1F [Compound 77, N-(4-(4,5-Dihydro-1H-imidazol-2-yl)-5-(3-(trifluoromethyl)phenyl)thiazol-2-yl)-2,6-difluorobenzamide] | > 1000 | –
40 | O=C(Nc1nc(-c2ncc[nH]2)c(-c2cccc(C(F)(F)F)c2)s1)c1c(F)cccc1F [Compound 78, N-(4-(1H-Imidazol-2-yl)-5-(3-(trifluoromethyl)phenyl)thiazol-2-yl)-2,6-difluorobenzamide hydrochloride] | > 1000 | –
